# From ChEMBL document CHEMBL1123635, “Angiotensin-converting enzyme inhibitors: perhydro-1,4-thiazepin-5-one derivatives” (J Med Chem, 1987)
# Molecular target: T1, Angiotensin-converting enzyme (Oryctolagus cuniculus, UniProt P12822)
# T1 sequence (P12822 whole entry): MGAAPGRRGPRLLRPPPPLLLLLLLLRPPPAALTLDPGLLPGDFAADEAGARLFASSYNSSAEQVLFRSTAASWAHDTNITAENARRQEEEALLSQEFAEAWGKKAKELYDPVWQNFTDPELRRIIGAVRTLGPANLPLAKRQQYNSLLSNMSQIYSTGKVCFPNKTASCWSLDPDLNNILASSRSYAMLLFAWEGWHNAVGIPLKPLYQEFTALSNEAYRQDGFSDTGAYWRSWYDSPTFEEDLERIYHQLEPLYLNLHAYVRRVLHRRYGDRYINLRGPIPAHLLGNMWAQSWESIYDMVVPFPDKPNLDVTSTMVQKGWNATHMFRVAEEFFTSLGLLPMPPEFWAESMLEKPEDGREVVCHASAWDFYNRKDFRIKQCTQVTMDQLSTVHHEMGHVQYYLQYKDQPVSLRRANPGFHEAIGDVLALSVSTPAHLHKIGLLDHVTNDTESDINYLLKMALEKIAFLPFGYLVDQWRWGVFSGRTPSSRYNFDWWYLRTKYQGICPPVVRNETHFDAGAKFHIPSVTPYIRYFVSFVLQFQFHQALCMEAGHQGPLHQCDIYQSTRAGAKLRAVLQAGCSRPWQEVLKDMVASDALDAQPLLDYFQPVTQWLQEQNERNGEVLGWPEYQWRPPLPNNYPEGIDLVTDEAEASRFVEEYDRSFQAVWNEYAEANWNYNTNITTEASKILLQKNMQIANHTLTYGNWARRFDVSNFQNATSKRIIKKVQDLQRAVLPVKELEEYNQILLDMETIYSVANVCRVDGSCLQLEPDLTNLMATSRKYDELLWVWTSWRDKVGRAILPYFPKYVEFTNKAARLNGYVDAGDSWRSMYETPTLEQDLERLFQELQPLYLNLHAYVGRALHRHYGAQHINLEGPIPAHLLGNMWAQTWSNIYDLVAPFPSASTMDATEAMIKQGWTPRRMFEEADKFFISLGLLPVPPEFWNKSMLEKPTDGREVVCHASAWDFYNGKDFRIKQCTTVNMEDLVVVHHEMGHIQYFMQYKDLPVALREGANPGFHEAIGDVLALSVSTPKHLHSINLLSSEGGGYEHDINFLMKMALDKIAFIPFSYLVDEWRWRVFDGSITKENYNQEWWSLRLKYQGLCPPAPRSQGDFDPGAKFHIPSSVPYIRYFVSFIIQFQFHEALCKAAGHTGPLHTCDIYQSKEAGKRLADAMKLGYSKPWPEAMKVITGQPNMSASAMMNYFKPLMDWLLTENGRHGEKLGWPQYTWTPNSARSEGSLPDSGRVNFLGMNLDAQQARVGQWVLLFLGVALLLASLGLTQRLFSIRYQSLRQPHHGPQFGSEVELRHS
# Assay: Inhibitory activity against rabbit lung Angiotensin I converting enzyme with 5 mM hippuryl-histidyl-leucine as substrate
row,SMILES,IC50
1,O=C(O)CN1C[C@H](c2ccccc2)SC[C@H](N[C@@H](CCc2ccccc2)C(=O)O)C1=O,35.5 nM
2,O=C(O)CN1C[C@H](c2cccs2)SC[C@H](N[C@@H](CCc2ccccc2)C(=O)O)C1=O,64.7 nM
3,O=C(O)CN1C(=O)[C@@H](N[C@@H](CCc2ccccc2)C(=O)O)CSC[C@@H]1c1ccccc1,78.2 nM
4,O=C(O)CN1C[C@@H](c2ccccc2)SC[C@H](N[C@@H](CCc2ccccc2)C(=O)O)C1=O,3.7 nM
5,O=C(O)CN1C[C@H](c2ccsc2)SC[C@H](N[C@@H](CCc2ccccc2)C(=O)O)C1=O,86.9 nM
6,O=C(O)CN1C[C@@H](c2ccsc2)SC[C@H](N[C@@H](CCc2ccccc2)C(=O)O)C1=O,4.1 nM

# More lines, now with the values ahead:
row,IC50,SMILES
1,2.8 nM,O=C(O)CN1C(=O)[C@@H](N[C@@H](CCc2ccccc2)C(=O)O)CSCC1c1cccs1 (some centres undefined)
2,3.6 nM,O=C(O)CN1C[C@@H](c2cccs2)SC[C@H](N[C@@H](CCc2ccccc2)C(=O)O)C1=O [TEMOCAPRILAT]
3,3.4 nM,O=C(O)CN1C(=O)[C@@H](N[C@@H](CCc2ccccc2)C(=O)O)CSC[C@H]1c1ccccc1
